# Reference: PubChem BioAssay (NCI)
#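 Following 48 hours of exposure in 96-well plates, responses at five concentrations were used to interpolate endpoints linearly. Definition used: TGI = concentration required for complete inhibition of growth.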
# Key:
# Assay in all cases: NCI anticancer screen, dose series, 48 h
# [1] = test system: PC-3 prostate
# [2] = test system: K-562 leukemia
# [3] = test system: HOP-62 NSCLC
# [4] = test system: NCI-H522 lung
# [5] = test system: NCI-H460 lung
# [6] = test system: RPMI-8226 leukemia
# [7] = test system: HOP-92 NSCLC
# [8] = test system: SK-MEL-5 melanoma
# [9] = test system: DU-145 prostate
# [10] = test system: MDA-N
# [11] = test system: UACC-257 melanoma
# [12] = test system: SF-295 CNS
# [13] = test system: SR leukemia
# [14] = test system: EKVX NSCLC
# [15] = test system: UACC-62 melanoma
# [16] = test system: CAKI-1 renal
# [17] = test system: HS 578T breast
# [18] = test system: HT29 colon
# [19] = test system: BT-549 breast
# [20] = test system: MCF7 breast
# [21] = test system: NCI/ADR-RES ovarian
# [22] = test system: SF-268 CNS
# [23] = test system: SN12C renal
# [24] = test system: KM12 colon
# [25] = test system: A549 NSCLC
# [26] = test system: OVCAR-8 ovarian
# [27] = test system: ACHN renal
# [28] = test system: MDA-MB-435
# [29] = test system: MDA-MB-231 breast
# [30] = test system: HCT-15 colon
# [31] = test system: SK-MEL-28 melanoma
# [32] = test system: OVCAR-4 ovarian
# [33] = test system: MOLT-4 leukemia
# [34] = test system: SF-539 CNS
# [35] = test system: COLO 205 colon
# [36] = test system: OVCAR-3 ovarian
# [37] = test system: SNB-19 CNS
# [38] = test system: RXF 393 renal
# [39] = test system: CCRF-CEM leukemia
# [40] = test system: IGROV1 ovarian
# [41] = test system: SW-620 colon
# [42] = test system: M14 melanoma
# [43] = test system: SK-OV-3 ovarian
# [44] = test system: UO-31 renal
# [45] = test system: HCT-116 colon
# [46] = test system: U251 CNS
# [47] = test system: SNB-75 CNS
# [48] = test system: NCI-H23 lung
# [49] = test system: SK-MEL-2 melanoma
# [50] = test system: OVCAR-5 ovarian
# [51] = test system: 786-0 renal
# [52] = test system: HCC-2998 colon
# [53] = test system: T-47D breast
# [54] = test system: LOX IMVI melanoma
# [55] = test system: TK-10 renal
# [56] = test system: MALME-3M melanoma
# [57] = test system: A498 renal
# [58] = test system: HL-60(TB) leukemia
# [59] = test system: NCI-H226 lung
structure (smiles),measurement,setting,value
CCOC(=O)CNC(=O)C(CSCc1ccc(Br)cc1)NC(=O)CCC(N)C(=O)OCC (configuration not stated),TGI,[1],> 50 µM
same,TGI,[2],> 50 µM
same,TGI,[3],> 50 µM
same,TGI,[4],> 50 µM
same,TGI,[5],> 50 µM
same,TGI,[6],> 50 µM
same,TGI,[7],> 50 µM
same,TGI,[8],> 50 µM
same,TGI,[9],> 50 µM
same,TGI,[10],> 50 µM
same,TGI,[11],> 50 µM
same,TGI,[12],> 50 µM
same,TGI,[13],> 50 µM
same,TGI,[14],> 50 µM
same,TGI,[15],> 50 µM
same,TGI,[16],> 50 µM
same,TGI,[17],> 50 µM
same,TGI,[18],> 50 µM
same,TGI,[19],> 50 µM
same,TGI,[20],> 50 µM
same,TGI,[21],> 50 µM
same,TGI,[22],> 50 µM
same,TGI,[23],> 50 µM
same,TGI,[24],> 50 µM
same,TGI,[25],> 50 µM
same,TGI,[26],> 50 µM
same,TGI,[27],> 50 µM
same,TGI,[28],> 50 µM
same,TGI,[29],> 50 µM
same,TGI,[30],> 50 µM
same,TGI,[31],> 50 µM
same,TGI,[32],> 50 µM
same,TGI,[33],> 50 µM
same,TGI,[34],> 50 µM
same,TGI,[35],> 50 µM
same,TGI,[36],> 50 µM
same,TGI,[37],> 50 µM
same,TGI,[38],> 50 µM
same,TGI,[39],> 50 µM
same,TGI,[40],> 50 µM
same,TGI,[41],> 50 µM
same,TGI,[42],> 50 µM
same,TGI,[43],> 50 µM
same,TGI,[44],> 50 µM
same,TGI,[45],> 50 µM
same,TGI,[46],> 50 µM
same,TGI,[47],> 50 µM
same,TGI,[48],> 50 µM
same,TGI,[49],> 50 µM
same,TGI,[50],> 50 µM
same,TGI,[51],> 50 µM
same,TGI,[52],> 50 µM
CC[C@]1(Cc2ccc(OC)c(OC)c2)CN(S(=O)(=O)c2ccc(C)cc2)C[C@@H]1OC(C)=O,TGI,[1],> 100 µM
same,TGI,[2],> 100 µM
same,TGI,[53],> 100 µM
same,TGI,[3],> 100 µM
same,TGI,[5],> 100 µM
same,TGI,[6],> 100 µM
same,TGI,[7],> 100 µM
same,TGI,[8],> 100 µM
same,TGI,[54],> 100 µM
same,TGI,[9],> 100 µM
same,TGI,[10],> 100 µM
same,TGI,[11],> 100 µM
same,TGI,[12],> 100 µM
same,TGI,[13],> 100 µM
same,TGI,[14],> 100 µM
same,TGI,[15],> 100 µM
same,TGI,[16],> 100 µM
same,TGI,[17],> 100 µM
same,TGI,[18],> 100 µM
same,TGI,[20],> 100 µM
same,TGI,[21],> 100 µM
same,TGI,[22],> 100 µM
same,TGI,[24],> 100 µM
same,TGI,[25],> 100 µM
same,TGI,[55],> 100 µM
same,TGI,[56],> 100 µM
same,TGI,[26],> 100 µM
same,TGI,[27],> 100 µM
same,TGI,[28],> 100 µM
same,TGI,[29],> 100 µM
same,TGI,[30],> 100 µM
same,TGI,[31],> 100 µM
same,TGI,[32],> 100 µM
same,TGI,[33],> 100 µM
same,TGI,[57],> 100 µM
same,TGI,[34],> 100 µM
same,TGI,[35],> 100 µM
same,TGI,[36],> 100 µM
same,TGI,[37],> 100 µM
same,TGI,[38],> 100 µM
same,TGI,[39],> 100 µM
same,TGI,[40],> 100 µM
same,TGI,[58],> 100 µM
same,TGI,[41],> 100 µM
same,TGI,[42],> 100 µM
same,TGI,[43],> 100 µM
same,TGI,[44],> 100 µM
same,TGI,[46],> 100 µM
same,TGI,[47],> 100 µM
same,TGI,[59],> 100 µM
same,TGI,[48],> 100 µM
same,TGI,[49],> 100 µM
same,TGI,[50],> 100 µM
same,TGI,[51],> 100 µM
same,TGI,[52],> 100 µM
CCOC(=O)c1csc(NC(=O)CCN(CC)CC)n1,TGI,[1],> 100 µM
same,TGI,[2],> 100 µM
same,TGI,[53],> 100 µM
same,TGI,[3],> 100 µM
same,TGI,[5],> 100 µM
same,TGI,[6],> 100 µM
same,TGI,[7],69.3 µM
same,TGI,[8],> 100 µM
same,TGI,[54],> 100 µM
same,TGI,[9],> 100 µM
same,TGI,[10],> 100 µM
same,TGI,[11],> 100 µM
same,TGI,[12],> 100 µM
same,TGI,[13],> 100 µM
same,TGI,[14],> 100 µM
same,TGI,[15],> 100 µM
same,TGI,[16],42.8 µM
same,TGI,[18],64.6 µM
same,TGI,[20],55.5 µM
same,TGI,[21],> 100 µM
same,TGI,[24],52.8 µM
same,TGI,[25],> 100 µM
same,TGI,[55],62.8 µM
same,TGI,[26],95.9 µM
same,TGI,[27],> 100 µM
same,TGI,[28],> 100 µM
same,TGI,[29],> 100 µM
same,TGI,[30],75.3 µM
same,TGI,[31],62 µM
same,TGI,[32],> 100 µM
same,TGI,[33],90.3 µM
same,TGI,[57],> 100 µM
same,TGI,[34],56.8 µM
same,TGI,[35],84.8 µM
same,TGI,[36],69 µM
same,TGI,[37],> 100 µM
same,TGI,[38],> 100 µM
same,TGI,[39],83.3 µM
same,TGI,[40],> 100 µM
same,TGI,[58],> 100 µM
same,TGI,[41],92.8 µM
same,TGI,[42],64.1 µM
same,TGI,[43],> 100 µM
same,TGI,[44],> 100 µM
same,TGI,[46],> 100 µM
same,TGI,[47],73.5 µM
same,TGI,[59],89 µM
same,TGI,[48],> 100 µM
same,TGI,[49],> 100 µM
same,TGI,[50],> 100 µM
same,TGI,[52],> 100 µM
CCN1CC2=C(NC(=S)NC2c2ccc(Cl)cc2)/C(=C/c2ccc(Cl)cc2)C1 (configuration not stated),TGI,[1],> 100 µM
same,TGI,[2],> 100 µM
same,TGI,[3],> 100 µM
same,TGI,[4],> 100 µM
same,TGI,[5],45.8 µM
same,TGI,[6],90.9 µM
same,TGI,[8],> 100 µM
same,TGI,[54],> 100 µM
same,TGI,[9],> 100 µM
same,TGI,[10],> 100 µM
same,TGI,[11],> 100 µM
same,TGI,[12],> 100 µM
same,TGI,[14],> 100 µM
same,TGI,[15],> 100 µM
same,TGI,[16],> 100 µM
same,TGI,[17],> 100 µM
same,TGI,[18],> 100 µM
same,TGI,[19],> 100 µM
same,TGI,[20],> 100 µM
same,TGI,[21],> 100 µM
same,TGI,[22],> 100 µM
same,TGI,[24],> 100 µM
same,TGI,[25],> 100 µM
same,TGI,[55],> 100 µM
same,TGI,[56],> 100 µM
same,TGI,[26],> 100 µM
same,TGI,[27],> 100 µM
same,TGI,[28],> 100 µM
same,TGI,[29],> 100 µM
same,TGI,[30],> 100 µM
same,TGI,[31],> 100 µM
same,TGI,[32],> 100 µM
same,TGI,[33],79.2 µM
same,TGI,[57],62.1 µM
same,TGI,[35],> 100 µM
same,TGI,[36],> 100 µM
same,TGI,[37],> 100 µM
same,TGI,[38],> 100 µM
same,TGI,[39],87.7 µM
same,TGI,[40],> 100 µM
same,TGI,[58],> 100 µM
same,TGI,[41],> 100 µM
same,TGI,[42],> 100 µM
same,TGI,[43],> 100 µM
same,TGI,[44],> 100 µM
same,TGI,[45],> 100 µM
same,TGI,[46],> 100 µM
same,TGI,[47],> 100 µM
same,TGI,[59],> 100 µM
same,TGI,[48],> 100 µM
same,TGI,[49],> 100 µM
same,TGI,[50],> 100 µM
same,TGI,[51],> 100 µM
same,TGI,[52],> 100 µM
